Like-named read-outs stand apart in the source and are kept apart here.
Molecular target: T1, Human Cav3.1 calcium channel (Homo sapiens, UniProt O43497)
T1 construct: expressed in transfected cells; host or cells: HEK-293 natClytin/TASK1+Cav3.1 cell line
Experiment: Human Cav3.1 calcium channel patch clamp assay (SyncroPatch 384PE; single point and IC50, voltage dependent block)
Type: cell-based
Conditions: for % Inhibition (Single Point Data): Testing Conc 1.25, patch clamp
Protocol: Certain compounds (as indicated) were tested for Human Cav3.1 calcium channel activity via a patch clamp assay as disclosed herein.
Pulse generation and data collection were performed with PatchController384 V1.3.0 and DataController384 V1.2.1 (Nanion Technologies). Offline analysis was performed using Excel and Graphpad Prism (V 8.4.2) with complete data files uploaded to Dotmatics. The access resistance and apparent membrane capacitance were estimated using built-in protocols. Current was recorded in whole cell configuration from a population of cells. The cells were lifted, triturated, and resuspended at 800,000 cells/ml. The cells were allowed to recover in the cell hotel prior to experimentation. Currents were recorded at room temperature. The external solution contained the following (in mM): NaCl 80, NMDG 60, KCl 4, MgCl2 1, CaCl2 6, glucose 5 and HEPES 10 (pH=7.4, Osmolarity˜300 mOsm). The extracellular solution was used as the wash, reference and compound delivery solution.
The compound plate was created at 2× concentrated in the extracellular solution. The compound was diluted to 1:2 when added to the recording well. The amount of DMSO in the extracellular solution was held constant at the level used for the highest tested concentration. For the voltage clamp experiments on Cav3.1, data were sampled at 10 KHz. After establishment of the seal and the passage in the whole cell configuration, the cells were held at −120 mV. Cav3.1 current was evoked using a 100 ms step to −20 mV (to measure resting state block), followed by a 1600 ms step to −65 mV and a second 100 ms step to −20 mV (to measure voltage dependent block). The voltage protocol was applied every 15 seconds in the absence and in the presence of the compounds under investigation. […] Current amplitude (pA) was measured in the peak 1 and 2. The average of last 3 sweeps of each liquid period (vehicle, compound under investigation, full block) was calculated. Nickel-sensitive current was used to calculate the % of inhibition in the presence of the compound under investigation.

[1] = HEK-293 natClytin/TASK1+Cav3.1 cell line
[2] = voltage dependent block (VDB), HEK-293 natClytin/TASK1+Cav3.1 cell line, read-out: Cav3.1 IC50

T1 sequence (O43497 whole entry): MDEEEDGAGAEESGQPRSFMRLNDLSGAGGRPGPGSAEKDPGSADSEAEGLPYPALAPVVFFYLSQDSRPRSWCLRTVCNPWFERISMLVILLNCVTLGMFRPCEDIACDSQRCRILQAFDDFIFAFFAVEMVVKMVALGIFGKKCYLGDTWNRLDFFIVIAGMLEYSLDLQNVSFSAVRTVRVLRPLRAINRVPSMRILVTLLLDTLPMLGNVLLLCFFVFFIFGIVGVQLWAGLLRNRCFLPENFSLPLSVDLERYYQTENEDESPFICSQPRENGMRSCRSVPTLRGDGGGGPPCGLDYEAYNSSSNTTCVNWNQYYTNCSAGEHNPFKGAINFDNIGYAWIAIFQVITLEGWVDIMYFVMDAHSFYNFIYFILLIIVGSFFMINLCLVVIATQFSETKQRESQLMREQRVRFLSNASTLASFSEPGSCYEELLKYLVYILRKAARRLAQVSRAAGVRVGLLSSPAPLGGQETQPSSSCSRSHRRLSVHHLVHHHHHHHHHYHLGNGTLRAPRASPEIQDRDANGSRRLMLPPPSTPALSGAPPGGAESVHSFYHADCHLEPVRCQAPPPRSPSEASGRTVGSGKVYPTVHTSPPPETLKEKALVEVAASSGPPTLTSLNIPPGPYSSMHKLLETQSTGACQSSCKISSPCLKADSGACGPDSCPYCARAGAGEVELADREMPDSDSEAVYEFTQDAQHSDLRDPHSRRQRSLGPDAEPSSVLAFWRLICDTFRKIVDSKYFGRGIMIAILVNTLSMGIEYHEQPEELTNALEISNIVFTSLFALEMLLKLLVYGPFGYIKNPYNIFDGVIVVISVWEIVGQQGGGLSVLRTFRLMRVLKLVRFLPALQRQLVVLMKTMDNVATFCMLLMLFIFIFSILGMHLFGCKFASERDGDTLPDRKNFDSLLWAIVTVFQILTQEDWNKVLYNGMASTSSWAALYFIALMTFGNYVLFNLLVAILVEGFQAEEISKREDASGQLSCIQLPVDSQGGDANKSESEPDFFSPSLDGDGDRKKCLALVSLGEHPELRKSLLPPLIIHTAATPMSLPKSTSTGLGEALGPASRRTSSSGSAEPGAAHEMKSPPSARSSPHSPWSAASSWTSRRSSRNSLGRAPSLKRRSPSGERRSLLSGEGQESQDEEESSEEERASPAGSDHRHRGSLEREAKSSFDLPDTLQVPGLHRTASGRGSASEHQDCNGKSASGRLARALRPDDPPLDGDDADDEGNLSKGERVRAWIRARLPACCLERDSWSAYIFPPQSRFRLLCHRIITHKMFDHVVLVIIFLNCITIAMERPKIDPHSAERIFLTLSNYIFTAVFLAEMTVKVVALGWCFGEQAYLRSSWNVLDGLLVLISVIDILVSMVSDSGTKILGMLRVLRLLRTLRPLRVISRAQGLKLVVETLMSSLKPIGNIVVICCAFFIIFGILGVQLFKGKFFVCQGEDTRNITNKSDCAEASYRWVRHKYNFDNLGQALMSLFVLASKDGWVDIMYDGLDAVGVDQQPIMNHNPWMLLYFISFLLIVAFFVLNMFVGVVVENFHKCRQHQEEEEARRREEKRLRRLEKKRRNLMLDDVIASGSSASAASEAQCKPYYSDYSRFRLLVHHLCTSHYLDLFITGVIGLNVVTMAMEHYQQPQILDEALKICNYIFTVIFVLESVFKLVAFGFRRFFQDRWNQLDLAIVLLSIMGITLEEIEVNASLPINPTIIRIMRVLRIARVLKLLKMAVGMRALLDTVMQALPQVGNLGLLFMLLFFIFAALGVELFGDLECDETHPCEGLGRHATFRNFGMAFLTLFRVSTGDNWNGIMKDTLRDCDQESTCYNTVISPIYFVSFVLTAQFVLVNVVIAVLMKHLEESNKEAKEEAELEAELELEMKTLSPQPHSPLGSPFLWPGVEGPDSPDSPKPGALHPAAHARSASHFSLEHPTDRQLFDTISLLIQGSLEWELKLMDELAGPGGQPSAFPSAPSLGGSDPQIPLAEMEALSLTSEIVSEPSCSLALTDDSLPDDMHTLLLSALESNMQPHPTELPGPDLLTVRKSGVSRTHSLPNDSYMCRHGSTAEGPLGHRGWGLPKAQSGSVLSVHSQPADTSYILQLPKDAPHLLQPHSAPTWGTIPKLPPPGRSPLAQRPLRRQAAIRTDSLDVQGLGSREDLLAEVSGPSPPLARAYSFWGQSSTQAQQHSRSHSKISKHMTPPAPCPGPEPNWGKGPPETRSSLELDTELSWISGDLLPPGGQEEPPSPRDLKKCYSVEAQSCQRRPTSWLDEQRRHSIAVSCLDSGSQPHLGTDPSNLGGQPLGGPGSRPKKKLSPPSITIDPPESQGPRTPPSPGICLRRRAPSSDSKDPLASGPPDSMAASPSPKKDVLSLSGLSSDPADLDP

| SMILES | % Inhibition (Single Point Data) [1] | IC50 | IC50 [2] |
| --- | --- | --- | --- |
| CC1(CCN2C3CC2CN(Cc2nc4c(Cl)cc(F)cc4[nH]2)C3)CCC1 [Compound 109] | 98.531% | – | – |
| CN(C(=O)CN1C2CC1CN(Cc1nc3c(Cl)cc(F)cc3[nH]1)C2)C1CCCC1 [Compound 110] | 91.767% | < 78.2 nM | – |
| CC(C)(C)NC(=O)CN1C2CC1CN(Cc1nc3c(Cl)cc(N)cc3o1)C2 [Compound 111] | 35.454% | – | – |
| CC1(C)CC(CN2C3CC2CN(Cc2nc4c(Cl)cc(F)cc4[nH]2)C3)CCO1 (centres unmarked) [Compound 112] | 82.988% | – | – |
| Fc1cc(Cl)c2nc(CN3CC4CC(C3)N4CCC3(F)CCCC3)[nH]c2c1 [Compound 113] | 94.677% | – | – |
| CC(C)(C)NC(=O)CN1C2CC1CN(Cc1nc3c(C#N)cc(F)cc3[nH]1)C2 [Compound 114] | 95.181% | < 78.2 nM | – |
| CC(C)(C)NC(=O)CN1C2CC1CN(Cc1nc3c(Cl)cc(F)cc3o1)C2 [Compound 115] | – | – | 4360 nM |
| CC(C)(C)CC(=O)N1C2CC1CN(Cc1nc3c(Cl)cc(F)cc3[nH]1)C2 [Compound 116] | – | – | 2460 nM |
| Fc1cc(Cl)c2nc(CN3CC4CC(C3)N4CC3CCOCC3)[nH]c2c1 [Compound 117] | 40.989% | – | 1360 nM |
| C[C@H](c1nc2c(Cl)cc(F)cc2[nH]1)N1CC2CCC(C1)N2CC(=O)NC(C)(C)C [Compound 118] | 102.64% | – | – |
| C[C@@H](c1nc2c(Cl)cc(F)cc2[nH]1)N1CC2CCC(C1)N2CC(=O)NC(C)(C)C [Compound 119] | 95.894% | – | – |
| O=C1CCCCN1CCN1C2CC1CN(Cc1nc3c(Cl)cc(F)cc3[nH]1)C2 [Compound 120] | 81.802% | – | – |
| CC1(C(=O)NCCN2C3CC2CN(Cc2nc4c(Cl)cc(F)cc4[nH]2)C3)CC1 [Compound 121] | 96.032% | – | 254 nM |
| CC(C)(C)NC(=O)CN1C2CC1CN(Cc1nc3c(C(F)(F)F)cccc3[nH]1)C2 [Compound 122] | 80.218% | – | 224 nM |
| CC(C)(C)NC(=O)CN1CCC(CNc2nccc3c(F)cc(Cl)cc23)CC1 [Compound 123] | 96.398% | – | 243 nM |
| CC(C)(C)NC(=O)CN1CCC(CNc2nccc3c(Cl)cc(F)cc23)CC1 [Compound 124] | 67.808% | – | 645 nM |
| CC(C)(NC(=O)CN1CC2CC1CN2Cc1nc2c(Cl)cc(F)cc2[nH]1)C(F)(F)F (centres unmarked) [Compound 125] | 95.552% | – | 156 nM |
| CC(C)(C)NC(=O)CN1CC2CC1CN2Cc1nc2c(Cl)cc(F)cc2[nH]1 (centres unmarked) [Compound 126] | 94.215% | – | – |
| CC(C)(NC(=O)CN1CC2CC(C1)N2Cc1nc2c(Cl)ccc(F)c2[nH]1)C(F)(F)F [Compound 127] | 52.415% | – | 992 nM |
| CN(C(=O)CN1C2CC1CN(Cc1nc3c(Cl)cc(F)cc3[nH]1)C2)C(C)(C)CO [Compound 128] | 18.511% | – | – |
| CC(C)(NC(=O)CN1C2CC1CN(CC(=O)Nc1cc(F)cc(Cl)c1)C2)C(F)(F)F [Compound 129] | 89.48% | – | 222 nM |
| CC(C)(C)NC(=O)CN1CC2CC1CN2CC(=O)Nc1cc(F)cc(Cl)c1 (centres unmarked) [Compound 130] | 92.618% | – | 121 nM |
| CC(C)(C)NC(=O)CN1CC2CC1CN2CC(=O)Nc1cccc(Cl)c1 (centres unmarked) [Compound 131] | 83.36% | – | 2380 nM |

| SMILES | % Inhibition (Single Point Data) [1] | IC50 | IC50 [2] |
| --- | --- | --- | --- |
| O[C@H]1CC[C@@H](OCCN2C3CC2CN(Cc2nc4c(Cl)cc(F)cc4[nH]2)C3)CC1 [Compound 132] | 6.2687% | – | 5900 nM |
| O[C@H]1CC[C@H](OCCN2C3CC2CN(Cc2nc4c(Cl)cc(F)cc4[nH]2)C3)CC1 [Compound 133] | 72.888% | – | 553 nM |
| CC(C)(C)C(=O)NCCN1C2CC1CN(Cc1nc3c(Cl)cc(F)cc3[nH]1)C2 [Compound 134] | 94.728% | – | – |
| O=C(NCCN1C2CC1CN(Cc1nc3c(Cl)cc(F)cc3[nH]1)C2)C1(C(F)(F)F)CC1 [Compound 135] | 101.33% | – | 156 nM |
| COc1ccc(Cl)c2nc(CN3CC4CC(C3)N4CC(=O)NC(C)(C)C(F)(F)F)[nH]c12 [Compound 136] | 100.03% | – | – |
| CC1(C(=O)NCCN2C3CC2CN(Cc2nc4c(Cl)cc(F)cc4[nH]2)C3)CCC1 [Compound 137] | 96.095% | < 78.2 nM | – |
| O=C(NCCN1C2CC1CN(Cc1nc3c(Cl)cc(F)cc3[nH]1)C2)C1(C(F)(F)F)CCC1 [Compound 138] | 98.457% | – | – |
| CC(C)(C)OC(=O)CN1C2CC1CN(Cc1nc3c(Cl)cc(F)cc3[nH]1)C2 [Compound 139] | 92.564% | – | 153 nM |
| CC1(OC(=O)CN2C3CC2CN(Cc2nc4c(Cl)cc(F)cc4[nH]2)C3)CC1 [Compound 140] | 79.539% | – | 283 nM |
| O=C(CN1C2CC1CN(Cc1nc3c(Cl)cc(F)cc3[nH]1)C2)OC1CCCC1 [Compound 141] | 100.15% | – | 162 nM |
| CC1(S(=O)(=O)NCCN2C3CC2CN(Cc2nc4c(Cl)cc(F)cc4[nH]2)C3)CC1 [Compound 142] | 84.115% | – | 223 nM |
| CC1(C(=O)OCCN2C3CC2CN(Cc2nc4c(Cl)cc(F)cc4[nH]2)C3)CC1 [Compound 143] | 78.298% | – | 174 nM |
| Cc1ccc(F)c2[nH]c(CN3CC4CC(C3)N4CC(=O)NC(C)(C)C(F)(F)F)nc12 [Compound 144] | 98.286% | 74.5 nM | – |
| CN(CCN1C2CC1CN(Cc1nc3c(Cl)cc(F)cc3[nH]1)C2)C(=O)C1(C)CC1 [Compound 145] | 83.5% | – | – |
| Fc1cc(Cl)c2nc(CN3CC4CC(C3)N4CCOC3CCOCC3)[nH]c2c1 [Compound 146] | 41.657% | – | 1280 nM |
| OC(CN1C2CC1CN(Cc1nc3c(Cl)cc(F)cc3[nH]1)C2)C1CCCCC1 (centres unmarked) [Compound 147] | 99.075% | – | – |
| CC(C)(C)NC(=O)CN1C2COCC1CN(Cc1nc3c(Cl)cc(F)cc3[nH]1)C2 [Compound 148] | 11.572% | – | – |
| CC(C)(NC(=O)CN1CC2CC1CN2Cc1nc2c(Cl)ccc(F)c2[nH]1)C(F)(F)F (centres unmarked) [Compound 149] | 99.801% | – | 407 nM |
| CC1(C)CCC(=O)N1CCN1C2CC1CN(Cc1nc3c(Cl)cc(F)cc3[nH]1)C2 [Compound 150] | 66.439% | – | 652 nM |
| OC1(CN2C3CC2CN(Cc2nc4c(Cl)cc(F)cc4[nH]2)C3)CCC(F)(F)CC1 [Compound 151] | 95.252% | – | – |
| Fc1cc(Cl)c2nc(CN3CC4CC(C3)N4CC3(F)CCC(F)(F)CC3)[nH]c2c1 [Compound 152] | 70.533% | < 78.2 nM | – |
| CC(C)(C)NC(=O)CN1CC2COCC(C1)N2Cc1nc2c(Cl)cc(F)cc2[nH]1 [Compound 153] | 82.059% | – | 386 nM |
| Fc1ccc(Cl)c2nc(CN3CCN(CC(F)(F)C4CCCCC4)CC3)[nH]c12 [Compound 154] | 75.83% | – | 525 nM |
